Measurements reported in patent US9101562B2, “Additives for chlorine dioxide-containing compositions” (BASF CORPORATION, priority 2010, dated 2015).
Like-named read-outs stand apart in the source and are kept apart here. Where a SMILES comes first, the peptide text is derived from it.

Experiment: Chlorine dioxide compatibility: ClO2 decrease in 200 ppm ClO2 test samples containing an additive (UV/Vis absorption or titration)
Format: physicochemical
Conditions: for Chlorine dioxide (ppm): 200 ppm ClO2 composition with sucralose 0.5 wt. %
[1] = Table 2, 200 ppm ClO2 test sample, single additive at listed wt. %, interpolated to 8 hours
[2] = Table 2, […], interpolated to 8 hours
[3] = FIG. 1A, 200 ppm ClO2, single sweetener at 0.5 wt. %
[4] = Table 3, 200 ppm ClO2 test sample, single additive at listed wt. %, interpolated to 8 hours
[5] = Table 3, […], interpolated to 8 hours

## OCC(O)CO [compound 15, Glycerol]
[1]
  ClO2 decrease @ 8 hrs: 1%

## C/C=C/C=C/C(=O)[O-].[K+] [compound 35, Potassium Sorbate]
  ClO2 decrease @ 8 hrs: 99%

## CC(C)[C@@H]1CC[C@@H](C)CC1=O [compound 4, Menthone]
[1]
  ClO2 decrease @ 8 hrs: 4%

## O=Cc1ccccc1 [compound 2, Benzaldehyde]
[2]
  ClO2 decrease @ 8 hrs: 1%

## N[C@@H](CCC(=O)O)C(=O)O [compound 21, l-Glutamic Acid]
[2]
  ClO2 decrease @ 8 hrs: 1%

## OCc1ccccc1 [compound 12, Benzyl Alcohol]
[1]
  ClO2 decrease @ 8 hrs: 8%

## OC[C@H]1O[C@H](O[C@]2(CCl)O[C@H](CCl)[C@@H](O)[C@@H]2O)[C@H](O)[C@@H](O)[C@H]1Cl [compound 10, Sucralose]
[3]
  chlorine dioxide concentration versus time behaviour: steep immediate declines in chlorine dioxide concentration, followed by much more gradual declines
[1]
  ClO2 decrease @ 8 hrs: 9%
Interpolation of the data at 0.88 hours and 15.35 hours
  chlorine dioxide present at 8 hours: 166.5 ppm
Time 0.25 hours
  Chlorine dioxide (ppm): 183 ppm
Time 0.88 hours
  Chlorine dioxide (ppm): 168 ppm
Time 15.35 hours
  Chlorine dioxide (ppm): 165 ppm
Time 22.62 hours
  Chlorine dioxide (ppm): 165 ppm
Time 70.58 hours
  Chlorine dioxide (ppm): 163 ppm

## CCO [compound 17, Ethanol]
[1]
  ClO2 decrease @ 8 hrs: 4%

## CC12CCC(CC1=O)C2(C)C (stereo not shown) [Comp. 3, Camphor]
[1]
  ClO2 decrease @ 8 hrs: 2%

## CCOC(C)=O [compound 16, Ethyl Acetate]
  ClO2 decrease @ 8 hrs: 3%

## O.O.O=C1NS(=O)(=O)c2ccccc21.[Na] [compound 9, Sodium saccharin Dihydrate]
  ClO2 decrease @ 8 hrs: 3%
  chlorine dioxide concentration versus time behaviour: steep immediate declines in chlorine dioxide concentration, followed by much more gradual declines

## CC12CCC(CC1)C(C)(C)O2 [compound 6, Eucalyptol]
[1]
  ClO2 decrease @ 8 hrs: 13%

## CCNC(=O)C1CC(C)CCC1C(C)C (stereo not shown) [compound 5, Ethyl Menthane Carboxamide]
[1]
  ClO2 decrease @ 8 hrs: 5%

## CC(O)CO (stereo not shown) [compound 13, Propylene Glycol]
[2]
  ClO2 decrease @ 8 hrs: 1%

## CC(C)[C@@H]1CC[C@@H](C)C[C@H]1O [Comp. 1, L-menthol]
[1]
  ClO2 decrease @ 8 hrs: 1%

## COC(=O)[C@H](Cc1ccccc1)NC(=O)[C@@H](N)CC(=O)O [compound 7, Aspartame] (H-Asp-Phe-OMe)
[3]
  chlorine dioxide concentration versus time behaviour: steep immediate declines in chlorine dioxide concentration, followed by much more gradual declines
[1]
  ClO2 decrease @ 8 hrs: 2%

## NCCO [compound 38, Monoethanolamine]
  ClO2 decrease @ 8 hrs: 92%

## CC1=CC(=O)NS(=O)(=O)O1 [compound 32, Acesulfame Potassium]
  ClO2 decrease @ 8 hrs: 100%
  chlorine dioxide concentration versus time behaviour: consumed all of the chlorine dioxide within about the first hour

## O=C1O[C@H]([C@@H](O)CO)C(O)=C1O [compound 28, Ascorbic Acid]
[4]
  ClO2 decrease @ 8 hrs: 100%

## t-Cinnamaldehyde [compound 26]
[5]
  ClO2 decrease @ 8 hrs: 37%

## C/C=C/C=C/C(=O)O [compound 29, Sorbic Acid]
[4]
  ClO2 decrease @ 8 hrs: 100%

## CC(C)=O [compound 19, Acetone]
  ClO2 decrease @ 8 hrs: 0.04%

## COc1ccc(C=O)cc1OC [compound 30, Methyl Vanillin]
  ClO2 decrease @ 8 hrs: 100%

## CC=Cc1ccc(OC)cc1 [compound 31, Anethole]
[5]
  ClO2 decrease @ 8 hrs: 100%
